Test [1] can be described thus: blockers of HIV-1 envelope-mediated cell-cell fusion – cherry-pick, dose response (AID 652057). It is filed as functional, cell-based.
The nature of test [2]: HIV-1 AD8 envelope cell-cell fusion blockers – cherry-pick, dose response (AID 652062).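 Note: luciferase signal from cell-cell fusion driven by HIV-1 clade B AD8 Env; potency is for inhibitors of fusion seen as a drop in luminescence.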 It counts as functional, cell-based.
The nature of test [3]: inhibition of Env-driven cell fusion – HIV entry, plate reader, dry powder, dose response (AID 687023). It counts as functional, cell-based.
Test [4] is described as follows: mouse embryonic fibroblast toxicity – cell-based, plate reader, dry powder, set 2, cytotoxicity control, dose response (AID 652280). It counts as functional. As to conditions: NIH3T3.
Test [5] can be described thus: T. cruzi growth inhibition in host cells, dose response, cell-based, plate reader, dry powder, set 2 (AID 652275). It counts as functional.
Test [6] in a line: inhibitors of TRPM1-promoter reporter in SK-MEL-5 – cell-based, luciferase, dry powder, set 9, MITF inhibitor project, dose response (AID 651588). It is filed as functional.
Test [7] in a line: MITF Orthogonal Assay: MALME3 CTG Assay Measured in Cell-Based System Using Plate Reader - 2084-04_Inhibitor_Dose_DryPowder_Activity_Set6. Particulars: MALME-3. It is filed as functional.
A short description of test [8]: growth inhibition of SK-MEL-5 melanoma cells – cell-based, CellTiter-Glo luminescence, dry powder, set 8, orthogonal assay for MITF inhibitor project, dose response (AID 651586). It is filed as functional. For orientation: Cellular ATP, detected with luciferase, serves as a proxy for viable cell number.
Test [9] is described as follows: growth inhibition of MALME3 cells – cell-based, CellTiter-Glo luminescence, dry powder, set 5, orthogonal assay for MITF inhibitor project, dose response (AID 651584). It is filed as functional. Particulars: MALME-3.
The nature of test [10]: MITF Orthogonal Assay: SK-MEL-5 CTG Assay Measured in Cell-Based System Using Plate Reader - 2084-02_Inhibitor_Dose_DryPowder_Activity_Set7. It is filed as functional.
Test [11] can be described thus: MITF: Counter assay: A375 proliferation Measured in Cell-Based System Using Plate Reader - 2084-03_Inhibitor_Dose_DryPowder_Activity_Set8. It counts as functional. As to conditions: A-375.
Test [12] in a line: cytotoxicity in MITF-independent A375 cells – cell-based, CellTiter-Glo luminescence, dry powder, set 9, counter-screen for MITF modulator project, dose response (AID 651591). It counts as functional. Particulars: A-375.
The nature of test [13]: inhibitors of TRPM1-promoter reporter in SK-MEL-5 – cell-based, luciferase, dry powder, set 8, MITF inhibitor project, dose response (AID 624430). It is filed as functional.
A short description of test [14]: melanocyte viability loss, MITF-dependent cells, cell-based, plate reader, dry powder, cytotoxicity control, dose response (AID 651920). It counts as functional.
Test [15] is described as follows: Late stage assay provider results from the probe development effort to identify inhibitors of the Plasmodium falciparum M18 Aspartyl Aminopeptidase (M18AAP): radiolabel-based cell-based dose response assay to identify compounds that inhibit P. falciparum growth in RBCs, Set 2.. It is filed as functional.
A short description of test [16]: A Cell-Based Confirmatory Screen for Compounds that Inhibit VEEV, TC-83 (8). It is filed as functional.
The nature of test [17]: A Cell-Based Confirmatory Screen for Compounds that Inhibit VEEV, TC-83 (7). It counts as functional.
A short description of test [18]: toxicity to HepG2 liver cells – cell-based, plate reader, dry powder, set 6, cytotoxicity control, dose response (AID 743311). It counts as functional.
A short description of test [19]: toxicity to A549 lung cells – cell-based, plate reader, dry powder, set 6, cytotoxicity control, dose response (AID 743312). It is filed as functional.
Test [20] is described as follows: cells. As to conditions: HEK293.

Data on six molecules can be found in ChEMBL document CHEMBL1201862, “PubChem BioAssay data set” (2004).

Where “and” joins values, the source holds several entries; their conditions need not be identical. Equal entries are not always repeated. Calls of active or inactive are those of the source. Bounds are passed on as bounds.

By AC50 is commonly meant the concentration at which the activity in the assay is half-maximal. With `CCCC#Cc1ccc2c(c1)O[C@@H](CN(C)S(=O)(=O)c1cccc(F)c1)[C@@H](C)CN([C@H](C)CO)S2(=O)=O`, the results for the AC50 in [1], in [2] and in test [3] were 10800 nM (active), 7800 nM (active) and 12400 nM (active), respectively.
As to `Cc1cccc(-c2ccc([C@H]3[C@H](CO)N4CCCCN(Cc5cccnc5)C[C@@H]34)cc2)c1`, the figures for the AC50 in test [4] and in test [5] were 17900 nM (active) and 259 nM (active), respectively.
For the molecule `NS(=O)(=O)c1ccc(NC2=CC(=O)c3ccccc3C2=O)cc1`, the AC50 was 1230 nM (active) in test [6]; 703 nM (active) in test [7]; 751 nM (active) in test [8]; 703 nM (active) in [9]; 77.1 nM (active) in test [10]; > 70000 nM (inactive) in test [11]. Further, the AC50 was > 70000 nM (inactive) in [12]; 1160 nM (active) in [13]; 7.15 µM (active) and 7.63 µM (active) in test [14].
The IC50 is the concentration that inhibits the measured activity by half. Consider `Cc1c(OCc2ccccc2)c(=O)ccn1CCNc1c2ccccc2nc2ccccc12`, for which the IC50 in test [15] is 4000 nM (active).
Consider `O=c1c2cc([N+](=O)[O-])ccc2nc(CN2CCCNCC2)n1-c1ccccc1`, for which the values for the IC50 in test [16] and in [17] were 940 nM (active) and 2480 nM (inconclusive), respectively.
With `c1ccc(-c2ccc(OCCn3cnc4ccccc43)cc2)cc1`, the values for the AC50 in test [18], in test [19] and in [20] were 5920 nM (active), 660 nM (active) and > 52000 nM (inactive), respectively.
